According to patent EP0344708A2, “Composition for external application to skin” (LION CORPORATION, priority 1988, dated 1989):

Assays:
defective wound = assay: Circular defective wound in rats (weight of regenerated granulation); assay type: in vivo, Wistar male rats; details: relative to control (10% ethanol aqueous solution) = 100; Concn. 0.1 % in 10% ethanol aqueous solution, applied to wound twice a day, 1 ml per application, 5 days; granulation weight 6 days after wounding; 6 rats per group
Method: Groups of Wistar male rats (SPF; each group comprising 6 animals) were anesthetized and hair was removed from the back of each rat. Then a circular defective wound having a diameter of 12 mm was formed on the skin of the back from which hair had been removed.
After forming the defective wound, an effective component was dissolved in 10% ethanol aqueous solution and applied to the wounded portion twice a day in a dose of 1 mℓ per application for 5 days successively. 6 Days after the formation of the wound, the animals were sacrificed to cut off the formed granulation from the defective portion and the weight of the granulation was determined. The relative value of the average of the measured weight with respect to that of the control was defined as an indication of the rate of healing of the defective wound. The results obtained are listed in Table IV given below (the results are expressed in the value relative to that of the control which is defined as 100).

incised wound = assay: Incised wound healing in rats (tension needed to peel skin at the wound, tensile strength tester); assay type: in vivo, Wistar male rats; details: relative to control (physiological saline) = 100; Concn. 0.5 % in saline, subcutaneously once a day for 7 days, 0.67 ml/kg/day; tension measured 8 days after operation; 8 rats per group
Source text: Groups of Wistar male rats (SPF; each group comprising 8 animals) were anesthetized with Nembutal® pentobarbital sodium) injection and hair was removed from the back of each rat over a wide area. After disinfecting the area with alcohol, a sharp incised wound having a length of 4 cm was mesially formed with a scalpel and it was stitched up, with Mitchell needles, at three positions at regular intervals (the Mitchell needles were removed 4 days after the operation).
After forming incised wound, an effective component was dissolved in a saline solution and administered subcutaneously once a day for 7 days successively (dose: 0.67 m ℓ/kg/day). The animals were sacrificed 8 days after the operation, the skin of the wounded part was peeled off to remove subcutis followed by preparing three pieces of the skin perpendicular to the line of the incised wound, having a width of 1 cm, per rat and determining tention (g/cm) required for peeling off each piece of the skin at the incised wound portion utilizing a tensile strength tester. The relative value of the average of the measured tension with respect to that of the control was defined as an indication of the rate of healing of the wound. The results obtained are listed in Table III given below (the results are expressed in the value relative to that of the control which is defined as 100).

[1] = Stability of the compound in the used composition after the use test, HPLC; assay type: physicochemical; details: on the average, 131400 min

CC(C)(COP(=O)(O)OP(=O)(O)OC[C@H]1O[C@@H](n2cnc3c(N)ncnc32)[C@H](O)[C@@H]1OP(=O)(O)O)[C@@H](O)C(=O)NCCC(=O)NCCS [Coenzyme A ·3Na, reference compound]
Rate of Regenerated Granulation (defective wound): 119
Rate of Relative Healing (incised wound): 117

CC(C)(COP(=O)(O)OP(=O)(O)OC[C@H]1O[C@@H](n2cnc3c(N)ncnc32)[C@H](O)[C@@H]1OP(=O)(O)O)[C@@H](O)C(=O)NCCC(=O)NCCSSCCNC(=O)CCNC(=O)[C@H](O)C(C)(C)COP(=O)(O)OP(=O)(O)OC[C@H]1O[C@@H](n2cnc3c(N)ncnc32)[C@H](O)[C@@H]1OP(=O)(O)O [Compound I-A]
rate of the remaining Compound I-A ([1]; in the used toilet water (0.1 %) after completion of the 3-month test): 97.8%

CC(C)(COP(=O)(O)OP(=O)(O)OC[C@H]1O[C@@H](n2cnc3c(N)ncnc32)[C@H](O)[C@@H]1OP(=O)(O)O)[C@@H](O)C(=O)NCCC(=O)NCCSSCCNC(=O)CCNC(=O)[C@H](O)C(C)(C)COP(=O)(O)OP(=O)(O)OC[C@H]1O[C@@H](n2cnc3c(N)ncnc32)[C@H](O)[C@@H]1OP(=O)(O)O [Compound I-A ·6Na]
rate of Compound I-A ·6Na remaining in the beauty essence ([1]; in the used beauty essence (0.1 %) after completion of the 3-month test): 98.5%
Rate of Regenerated Granulation (defective wound): 148
Rate of Relative Healing (incised wound): 126

CC(C)(COP(=O)(O)OP(=O)(O)OC[C@H]1O[C@@H](n2cnc3c(N)ncnc32)[C@H](O)[C@@H]1OP(=O)(O)O)[C@@H](O)C(=O)NCCC(=O)NCCSSCCNC(=O)CCNC(=O)[C@H](O)C(C)(C)COP(=O)(O)OP(=O)(O)OC[C@H]1O[C@@H](n2cnc3c(N)ncnc32)[C@H](O)[C@@H]1OP(=O)(O)O [Compound I-A ·2Ca]
rate of Compound I-A ·2Ca remaining in the milky lotion ([1]; in the used milky lotion (0.05 %) after completion of the 3-month test): 98.8%
